Experimental data reported in patent US20240343740A1, “MACROCYCLIC GLUCAGON-LIKE PEPTIDE 1 RECEPTOR AGONISTS” (Eli Lilly and Company, priority 2021, published 2024).
Like-named read-outs stand apart in the source and are kept apart here. One block for each compound: values may come before it.

Legend:
[1] = cc_pd bond
human GLP-1R [2] = biological target: T1, human GLP-1R (Homo sapiens, UniProt P43220); assay: Human GLP-1 Receptor HEK293 cell cAMP assay, 104 fmol/mg GLP-1R expression density; assay type: cell-based; parameters: expressed in transfected cells; host or cells: HEK293 clonal cell line; conditions: HEK293 cell line with 104 fmol/mg expression density of GLP-1R; for EC50: geometric mean, read-out: EC50 nM (SEM, n), intracellular cAMP response, relative EC50; for Emax: read-out: Emax % (SEM, n), intracellular cAMP response
Procedure, shortened: (§1)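 HEK293 clonal lines expressing human GLP-1R, 20-point compound curves, 30 min at 37° C in DMEM with 0.1% casein, 250 μM IBMX, 0.5% DMSO. cAMP by HTRF, converted via standard curve to % of maximal human GLP-1(7-36)NH2 response; relative EC50 and Emax from four-parameter logistic fit.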

human GLP-1R [3] = biological target: T1, human GLP-1R; assay: Human GLP-1 Receptor HEK293 cell cAMP assay, 581 fmol/mg GLP-1R expression density; assay type: cell-based; parameters: expressed in transfected cells; host or cells: HEK293 clonal cell line; conditions: HEK293 cell line with 581 fmol/mg expression density of GLP-1R; for EC50: geometric mean, read-out: EC50 nM (SEM, n), intracellular cAMP response, relative EC50; for Emax: read-out: Emax % (SEM, n), intracellular cAMP response
Procedure, shortened: as §1

[4] = percent of maximal response to GLP-1(7-36)NH2, arithmetic mean

T1 sequence (P43220 24-463): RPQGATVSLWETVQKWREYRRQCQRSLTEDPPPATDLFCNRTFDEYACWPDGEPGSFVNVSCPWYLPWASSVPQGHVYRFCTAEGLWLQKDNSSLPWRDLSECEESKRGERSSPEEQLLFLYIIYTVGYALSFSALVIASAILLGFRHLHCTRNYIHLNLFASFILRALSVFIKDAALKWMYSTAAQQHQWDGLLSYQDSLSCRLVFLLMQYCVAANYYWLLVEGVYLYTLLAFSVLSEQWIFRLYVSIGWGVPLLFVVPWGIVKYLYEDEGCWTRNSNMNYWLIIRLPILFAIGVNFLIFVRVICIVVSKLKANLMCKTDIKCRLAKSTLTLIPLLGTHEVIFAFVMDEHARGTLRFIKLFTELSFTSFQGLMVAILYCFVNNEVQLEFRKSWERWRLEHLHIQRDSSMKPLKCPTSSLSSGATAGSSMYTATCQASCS

Compound: CCOC(=O)Cc1cc(F)c2cc1CCOCc1cc(C#N)ccc1COc1cccc-2n1
ring closure, isolated yield ([1]; from CCOC(=O)Cc1cc(F)c(B2OC(C)(C)C(C)(C)O2)cc1CCOCc1cc(C#N)ccc1COc1cccc(Cl)n1, 14-membered ring, XPhos Pd G2/K3PO4, THF/water, 25.0 mM, 70.0 °C, 0.5 h): 34%

Compound: CCOC(=O)Cc1cc(F)c2cc1CCOCc1cc(ccc1Cl)COc1cccc-2n1
ring closure, isolated yield ([1]; from CCOC(=O)Cc1cc(F)c(B2OC(C)(C)C(C)(C)O2)cc1CCOCc1cc(COc2cccc(Cl)n2)ccc1Cl, 15-membered ring, XPhos Pd G2/K3PO4, THF/water, 27.0 mM, 60.0 °C, 1.5 h): 20%

Compound: CCOC(=O)Cc1cc(F)c2cc1CCOc1cc(C#N)ccc1COc1cccc-2n1
ring closure, isolated yield ([1]; from CCOC(=O)Cc1cc(F)c(Br)cc1CCOc1cc(C#N)ccc1COc1cccc(Br)n1, 13-membered ring, Me6Sn2/Pd(dppf)Cl2, 1,4-dioxane, 50.0 mM, 100.0 °C, 3.0 h): 41%

Compound: CCOC(=O)Cc1cc(F)c2cc1COCCc1cc(Cl)cc(F)c1COc1cccc-2n1
ring closure, isolated yield ([1]; from CCOC(=O)Cc1cc(F)c(Br)cc1COCCc1cc(Cl)cc(F)c1COc1cccc(Cl)n1, 14-membered ring, B2pin2/KOPiv/XPhos Pd G2, then K3PO4, THF/water, 24.0 mM, 55.0 °C, 6.0 h, 2 steps): 27%

Compound: CCOC(=O)Cc1cc(F)c2cc1COCc1cc(Cl)ccc1COc1cccc-2n1
ring closure, isolated yield ([1]; from CCOC(=O)Cc1cc(F)c(Br)cc1COCc1cc(Cl)ccc1COc1cccc(Cl)n1, 13-membered ring, B2neo2/KOPiv/XPhos Pd G2, then K3PO4, THF, then THF/water, 25.0 mM, 55.0 °C, 5.25 h, 2 steps): 32%

Compound: CCOC(=O)Cc1cc(F)c2cc1OCCCc1cc(C#N)ccc1CNc1cccc-2n1
ring closure, isolated yield ([1]; from CCOC(=O)Cc1cc(F)c(B2OCC(C)(C)CO2)cc1OCCCc1cc(C#N)ccc1CNc1cccc(Br)n1, 14-membered ring, PdCl2(dtbpf)/K3PO4, 1,4-dioxane/water, 43.0 mM, 70.0 °C, 2.0 h): 49%

Compound: CCOC(=O)Cc1cc(F)c2cc1OCCCc1cc(C#N)ccc1COc1cccc-2n1
ring closure, isolated yield ([1]; from CCOC(=O)Cc1cc(F)c(Br)cc1OCCCc1cc(C#N)ccc1COc1cccc(Br)n1, 14-membered ring, Me6Sn2/Pd(PPh3)4, 1,4-dioxane, 23.0 mM, 90.0 °C, 60.0 h): 47%

Compound: CCOC(=O)Cc1cc(F)c2cc1OCCCc1cc(C#N)cnc1COc1cccc-2n1
ring closure, isolated yield ([1]; from CCOC(=O)Cc1cc(F)c(Br)cc1OCCCc1cc(C#N)cnc1COc1cccc(Br)n1, 14-membered ring, Me6Sn2/CsF/XPhos Pd G2, 1,4-dioxane, 22.0 mM, 100.0 °C, 18.0 h): 49%

Compound: CCOC(=O)Cc1cc(F)c2cc1OCCCc1cc(ccc1C#N)COc1cccc-2n1
ring closure, isolated yield ([1]; from CCOC(=O)Cc1cc(F)c(B2OC(C)(C)C(C)(C)O2)cc1OCCCc1cc(COc2cccc(Br)n2)ccc1C#N, 15-membered ring, PdCl2(dtbpf)/K3PO4, 1,4-dioxane/water, 27.0 mM, 50.0 °C, 0.25 h): 38%

Compound: CCOC(=O)Cc1cc(F)c2cc1OCCOc1cc(C#N)ccc1COc1cccc-2n1
ring closure, isolated yield ([1]; from CCOC(=O)Cc1cc(F)c(Br)cc1OCCOc1cc(C#N)ccc1COc1cccc(Br)n1, 14-membered ring, B2pin2/KOAc/Pd(dppf)Cl2, then PdCl2/XPhos/K3PO4, THF/water, 8.9 mM, 45.0 °C, 16.0 h, 2 steps): 32%

Compound: CCOC(=O)Cc1ccc2cc1COCC(F)(F)c1cc(C#N)ccc1COc1cccc-2n1
ring closure, isolated yield ([1]; from CCOC(=O)Cc1ccc(Br)cc1COCC(F)(F)c1cc(C#N)ccc1COc1cccc(Br)n1, 14-membered ring, B2pin2/KOAc/Pd(dppf)Cl2, then XPhos Pd G2/K3PO4, 1,4-dioxane/water, 55.0 mM, 60.0 °C, 2.0 h, 2 steps): 21%

Compound: COC(=O)Cc1ccc2cc1COCCc1cc(C#N)ccc1COc1ccnc-2n1
ring closure, isolated yield ([1]; from COC(=O)Cc1ccc(B2OC(C)(C)C(C)(C)O2)cc1COCCc1cc(C#N)ccc1COc1ccnc(Cl)n1, 14-membered ring, XPhos Pd G2/K3PO4, THF/water, 36.0 mM, 50.0 °C, 6.0 h): 22%

Compound: COC(=O)Cc1ccc2cc1COCCc1cc(ccc1C#N)COc1cccc-2n1
ring closure, isolated yield ([1]; from COC(=O)Cc1ccc(B2OC(C)(C)C(C)(C)O2)cc1COCCc1cc(COc2cccc(Cl)n2)ccc1C#N, 15-membered ring, XPhos Pd(crotyl)Cl/K3PO4, THF/water, 33.0 mM, 50.0 °C, 0.83 h): 61%

Compound: COC(=O)Cc1ccc2cc1OCCCc1cc(C#N)ccc1COc1cccc-2n1
ring closure, isolated yield ([1]; from COC(=O)Cc1ccc(B2OC(C)(C)C(C)(C)O2)cc1OCCCc1cc(C#N)ccc1COc1cccc(Br)n1, 14-membered ring, XPhos Pd G2/K3PO4, THF/water, 57.0 mM, 45.0 °C, 2.25 h): 82%

Compound: COC(=O)Cc1ccc2cc1OCCCc1cc(Cl)ccc1COc1cccc-2n1
ring closure, isolated yield ([1]; from COC(=O)Cc1ccc(B2OC(C)(C)C(C)(C)O2)cc1OCCCc1cc(Cl)ccc1COc1cccc(Br)n1, 14-membered ring, XPhos Pd G2/K3PO4, THF/water, 9.2 mM, 40.0 °C, 15.0 h): 74%

EC50 (human GLP-1R [2]): 359 nM | Emax (human GLP-1R [2]; [4]): 78.2% | EC50 (human GLP-1R [3]): 102 nM | Emax (human GLP-1R [3]; [4]): 99.9%
Compound: O=C(O)c1ccc2nc(Cc3ccc4cc3OCCCc3cc(-c5cnn(C6COC6)c5)ccc3COc3cccc-4n3)n(C[C@@H]3CCO3)c2c1 [Example 76, (S)-1-(Oxetan-2-ylmethyl)-2-((5^4-(1-(oxetan-3-yl)-1H-pyrazol-4-yl)-3,9-dioxa-2(2,6)-pyridina-1(1,3),5(1,2)-dibenzenacyclononaphane-1^4-yl)methyl)-1H-benzo[d]imidazole-6-carboxylic acid]

EC50 (human GLP-1R [2]): 724 nM | Emax (human GLP-1R [2]; [4]): 83% | EC50 (human GLP-1R [3]): 193 nM | Emax (human GLP-1R [3]; [4]): 107%
Compound: CN(C)C(=O)c1ccc(-c2ccc3c(c2)CCCOc2cc(ccc2Cc2nc4ccc(C(=O)O)cc4n2C[C@@H]2CCO2)-c2cccc(n2)OC3)cc1 [Example 77, (S)-2-((5^4-(4-(Dimethylcarbamoyl)phenyl)-3,9-dioxa-2(2,6)-pyridina-1(1,3),5(1,2)-dibenzenacyclononaphane-1^4-yl)methyl)-1-(oxetan-2-ylmethyl)-1H-benzo[d]imidazole-6-carboxylic acid]

EC50 (human GLP-1R [2]): 248 nM | Emax (human GLP-1R [2]; [4]): 74.1% | EC50 (human GLP-1R [3]): 95.8 nM | Emax (human GLP-1R [3]; [4]): 99.8%
Compound: Nc1cc(-c2ccc3c(c2)CCCOc2cc(ccc2Cc2nc4ccc(C(=O)O)cc4n2C[C@@H]2CCO2)-c2cccc(n2)OC3)ccn1 [Example 78, (S)-2-((5^4-(2-Aminopyridin-4-yl)-3,9-dioxa-2(2,6)-pyridina-1(1,3),5(1,2)-dibenzenacyclononaphane-1^4-yl)methyl)-1-(oxetan-2-ylmethyl)-1H-benzo[d]imidazole-6-carboxylic acid]

EC50 (human GLP-1R [2]): 648 nM | Emax (human GLP-1R [2]; [4]): 9.53% | EC50 (human GLP-1R [3]): 369 nM | Emax (human GLP-1R [3]; [4]): 34.7%
Compound: Cn1ccc(-c2ccc3c(c2)CCCOc2cc(ccc2Cc2nc4ccc(C(=O)O)cc4n2C[C@@H]2CCO2)-c2cccc(n2)OC3)cc1=O [Example 79, (S)-2-((5^4-(1-Methyl-2-oxo-1,2-dihydropyridin-4-yl)-3,9-dioxa-2(2,6)-pyridina-1(1,3),5(1,2)-dibenzenacyclononaphane-1^4-yl)methyl)-1-(oxetan-2-ylmethyl)-1H-benzo[d]imidazole-6-carboxylic acid]

EC50 (human GLP-1R [2]): 303 nM | Emax (human GLP-1R [2]; [4]): 56% | EC50 (human GLP-1R [3]): 130 nM | Emax (human GLP-1R [3]; [4]): 84.1%
Compound: O=C(O)c1ccc2nc(Cc3ccc4cc3OCCCc3cc(-c5ccc(=O)[nH]c5)ccc3COc3cccc-4n3)n(C[C@@H]3CCO3)c2c1 [Example 80, (S)-1-(Oxetan-2-ylmethyl)-2-((5^4-(6-oxo-1,6-dihydropyridin-3-yl)-3,9-dioxa-2(2,6)-pyridina-1(1,3),5(1,2)-dibenzenacyclononaphane-1^4-yl)methyl)-1H-benzo[d]imidazole-6-carboxylic acid]

Compound: (S)-2-((5^4-Cyano-1^6,2^3-difluoro-3,8-dioxa-2(2,6)-pyridina-1(1,3),5(1,2)-dibenzenacyclononaphane-1^4-yl)methyl)-4-(2-methoxyethoxy)-1-(oxetan-2-ylmethyl)-1H-benzo[d]imidazole-6-carboxylic acid [Example 60]
EC50 (human GLP-1R [2]): 2.99 nM | Emax % (SEM, n), intracellular cAMP response (human GLP-1R [2]; [4]): 87.9% | EC50 (human GLP-1R [3]): 0.938 nM | Emax % (SEM, n), intracellular cAMP response (human GLP-1R [3]; [4]): 109%
